Results: the supplement of paper PMC5908809

How the values were obtained:
[1] = system: normal NK cells expanded with K562-aAPC; assay: percent inhibition of viability; higher = more inhibition; settings: 72 h, IL-2 2.5 ng/mL
Experimental: (§1)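 Drug sensitivity and resistance testing on K562-aAPC-expanded normal NK cells: 5 concentrations (10-fold steps over a 10,000-fold range), 72 h at 37 °C, viability by CellTiter-Glo normalised to DMSO and benzethonium chloride controls; DSS from the fitted curve.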

DERL-7 (IL-2 2.5 ng/mL) [2] = assay: as above; settings: 72 h
IMC-1 (IL-2 20 ng/mL) [3] = assay: as above; settings: 72 h
KAI3 (IL-2 2.5 ng/mL) [4] = assay: as above; settings: 72 h
KHYG-1 (IL-2 2.5 ng/mL) [5] = assay: as above; settings: 72 h
NK-92 (IL-2 2.5 ng/mL) [6] = assay: as above; settings: 72 h
NK-YS (IL-2 2.5 ng/mL) [7] = assay: as above; settings: 72 h
NKL (IL-2 2.5 ng/mL) [8] = assay: as above; settings: 72 h
SNK-6 (IL-2 2.5 ng/mL) [9] = assay: as above; settings: 72 h
YT (IL-2 2.5 ng/mL) [10] = assay: as above; settings: 72 h
[11] = system: normal primary NK cells, pool 1 (3 donors) (IL-2 2.5 ng/mL); assay: as above; settings: 72 h
[12] = system: normal primary NK cells, pool 1 (3 donors), resting (IL-2 0 ng/mL); assay: as above; settings: 72 h
[13] = system: normal primary NK cells, pool 2 (3 donors) (IL-2 2.5 ng/mL); assay: as above; settings: 72 h
[14] = system: normal primary NK cells, pool 3 (3 donors) (IL-2 2.5 ng/mL); assay: as above; settings: 72 h
[15] = system: normal NK cells expanded with K562-aAPC; assay: drug sensitivity score (DSS) (DSS units); higher = more sensitive; extreme values may be limits of the assay; settings: 72 h; IL-2 2.5 ng/mL
Experimental: as §1

DERL-7 (IL-2 2.5 ng/mL) [16] = assay: as above; settings: 72 h
IMC-1 (IL-2 20 ng/mL) [17] = assay: as above; settings: 72 h
KAI3 (IL-2 2.5 ng/mL) [18] = assay: as above; settings: 72 h
KHYG-1 (IL-2 2.5 ng/mL) [19] = assay: as above; settings: 72 h
NK-92 (IL-2 2.5 ng/mL) [20] = assay: as above; settings: 72 h
NK-YS (IL-2 2.5 ng/mL) [21] = assay: as above; settings: 72 h
NKL (IL-2 2.5 ng/mL) [22] = assay: as above; settings: 72 h
SNK-6 (IL-2 2.5 ng/mL) [23] = assay: as above; settings: 72 h
YT (IL-2 2.5 ng/mL) [24] = assay: as above; settings: 72 h
[25] = system: normal primary NK cells, pool 1 (3 donors) (IL-2 2.5 ng/mL); assay: as above; settings: 72 h
[26] = system: normal primary NK cells, pool 1 (3 donors), resting (IL-2 0 ng/mL); assay: as above; settings: 72 h
[27] = system: normal primary NK cells, pool 2 (3 donors) (IL-2 2.5 ng/mL); assay: as above; settings: 72 h
[28] = system: normal primary NK cells, pool 3 (3 donors) (IL-2 2.5 ng/mL); assay: as above; settings: 72 h

COc1ccc(C2=N[C@@H](c3ccc(Cl)cc3)[C@@H](c3ccc(Cl)cc3)N2C(=O)N2CCNC(=O)C2)c(OC(C)C)c1 [Nutlin-3] (max concentration tested 10000 nM)
percent inhibition of viability [%]
Settings | 1 nM | 10 nM | 100 nM | 1000 nM | 10000 nM
DERL-7 (IL-2 2.5 ng/mL) [2] | 0.15 | 0.54 | 7.5 | 29 | 99.3
IMC-1 (IL-2 20 ng/mL) [3] | -5.54 | -4.03 | -1.5 | -1.01 | 21.2
KAI3 (IL-2 2.5 ng/mL) [4] | -3.27 | -5.08 | 7.55 | 34.8 | 60.6
KHYG-1 (IL-2 2.5 ng/mL) [5] | -6.71 | -9.4 | -3.85 | -2.52 | 12.2
NK-92 (IL-2 2.5 ng/mL) [6] | -20.5 | 0.59 | -14.7 | 13 | 28.5
NK-YS (IL-2 2.5 ng/mL) [7] | -2.06 | -4.19 | 0.64 | 37.4 | 83.9
NKL (IL-2 2.5 ng/mL) [8] | 3.59 | -3.19 | 6.18 | 9.61 | 42.5
SNK-6 (IL-2 2.5 ng/mL) [9] | -8.93 | -12 | -4.65 | 42.5 | 85.7
YT (IL-2 2.5 ng/mL) [10] | -1.48 | -2.54 | 1.47 | 19.9 | 69.5
[1] | -4.98 | 0.87 | 1.74 | 19.4 | 99.2
[11] | -5.38 | 6.43 | 9.32 | 29 | 96.8
[12] | -5.64 | 8.67 | 11.7 | 69 | 93.8
[13] | -11.5 | 9.9 | 0.22 | 13.9 | 90
[14] | -6.84 | 5.45 | 0.48 | 4.02 | 75.6

Settings | drug sensitivity score
DERL-7 (IL-2 2.5 ng/mL) [16] | 9.5
IMC-1 (IL-2 20 ng/mL) [17] | 0.61
KAI3 (IL-2 2.5 ng/mL) [18] | 7.56
KHYG-1 (IL-2 2.5 ng/mL) [19] | 0.02
NK-92 (IL-2 2.5 ng/mL) [20] | 2.8
NK-YS (IL-2 2.5 ng/mL) [21] | 9.5
NKL (IL-2 2.5 ng/mL) [22] | 3.64
SNK-6 (IL-2 2.5 ng/mL) [23] | 10.1
YT (IL-2 2.5 ng/mL) [24] | 6.81
[15] | 8.63
[25] | 9.16
[26] | 14.5
[27] | 7.31
[28] | 4.75

COc1cccc2cc(-c3nc([C@H]4CC[C@H](C(=O)O)CC4)n4ncnc(N)c34)[nH]c12 [OSI-027] (max concentration tested 10000 nM)
percent inhibition of viability [%]
Settings | 1 nM | 10 nM | 100 nM | 1000 nM | 10000 nM
DERL-7 (IL-2 2.5 ng/mL) [2] | 7.51 | -0.27 | 4.62 | 33.3 | 81.3
IMC-1 (IL-2 20 ng/mL) [3] | -0.57 | -5.79 | -6.31 | -24.6 | 15.6
KAI3 (IL-2 2.5 ng/mL) [4] | -2.08 | 0.41 | 9.85 | 34.9 | 65.5
KHYG-1 (IL-2 2.5 ng/mL) [5] | -1.84 | -0.78 | 4.77 | 18.4 | 68.1
NK-92 (IL-2 2.5 ng/mL) [6] | 2.75 | 14.2 | 11.7 | 37.3 | 67
NK-YS (IL-2 2.5 ng/mL) [7] | -5.3 | -6.22 | 3.24 | 12.3 | 67.8
NKL (IL-2 2.5 ng/mL) [8] | -11.8 | -3.21 | 15.2 | 49.5 | 66
SNK-6 (IL-2 2.5 ng/mL) [9] | 4.93 | 11.4 | 9.18 | 31.7 | 55.4
YT (IL-2 2.5 ng/mL) [10] | 2.96 | 3.52 | 7.55 | 26.5 | 62.3
[1] | -6.22 | -5.68 | 3.76 | 21.5 | 48.2
[11] | -9.22 | 7.53 | -13.9 | 16.4 | 24.5
[12] | -7.98 | 3.28 | -0.52 | 18.1 | 13
[13] | -8.05 | -2.56 | 3.22 | 27.2 | 24.8
[14] | -5.61 | 1.81 | 2.65 | 24.4 | 23.8

Settings | drug sensitivity score
DERL-7 (IL-2 2.5 ng/mL) [16] | 8.48
IMC-1 (IL-2 20 ng/mL) [17] | 0.09
KAI3 (IL-2 2.5 ng/mL) [18] | 7.92
KHYG-1 (IL-2 2.5 ng/mL) [19] | 6.5
NK-92 (IL-2 2.5 ng/mL) [20] | 8.91
NK-YS (IL-2 2.5 ng/mL) [21] | 5.77
NKL (IL-2 2.5 ng/mL) [22] | 10.9
SNK-6 (IL-2 2.5 ng/mL) [23] | 7.2
YT (IL-2 2.5 ng/mL) [24] | 6.33
[15] | 4.91
[25] | 2.65
[26] | 2.18
[27] | 4.93
[28] | 4.17

O=C(Nc1ccc(OC(F)(F)F)cc1)c1sccc1NCc1ccnc2ccccc12 [OSI-930] (max concentration tested 2500 nM)
percent inhibition of viability [%]
Settings | 0.25 nM | 2.5 nM | 25 nM | 250 nM | 2500 nM
DERL-7 (IL-2 2.5 ng/mL) [2] | -3.26 | 4.29 | 2.35 | 12.1 | 10.2
IMC-1 (IL-2 20 ng/mL) [3] | 0.84 | -1.87 | 4.98 | 6.89 | 18.2
KAI3 (IL-2 2.5 ng/mL) [4] | 3.63 | -6.37 | -2.54 | -7.75 | 4.42
KHYG-1 (IL-2 2.5 ng/mL) [5] | 0.6 | 1.74 | 3.75 | 5.69 | 7.1
NK-92 (IL-2 2.5 ng/mL) [6] | 3.89 | -3.38 | -8.56 | 11.8 | 16.6
NK-YS (IL-2 2.5 ng/mL) [7] | -1.68 | -3.28 | -0.75 | 3.05 | 10.1
NKL (IL-2 2.5 ng/mL) [8] | -6.01 | -14.6 | -5.82 | -10.2 | 7.79
SNK-6 (IL-2 2.5 ng/mL) [9] | 2.35 | 8.65 | 27.3 | 16.9 | 25.4
YT (IL-2 2.5 ng/mL) [10] | -0.61 | -3.29 | 0.94 | 1 | 10.3
[1] | 0.01 | -3.72 | -1.42 | 0.82 | 7.54
[11] | -1.64 | 6.46 | -0.65 | 1.58 | 5.43
[12] | -4.47 | -4.58 | -9.07 | 4.32 | 12.1
[13] | -8.8 | -7.72 | 0 | 7.78 | 8.04
[14] | -8.79 | -12.1 | -5.29 | 4.46 | 8.54

Settings | drug sensitivity score
DERL-7 (IL-2 2.5 ng/mL) [16] | 0.66
IMC-1 (IL-2 20 ng/mL) [17] | 0.67
KAI3 (IL-2 2.5 ng/mL) [18] | 0
KHYG-1 (IL-2 2.5 ng/mL) [19] | 0
NK-92 (IL-2 2.5 ng/mL) [20] | 1.27
NK-YS (IL-2 2.5 ng/mL) [21] | 0
NKL (IL-2 2.5 ng/mL) [22] | 0
SNK-6 (IL-2 2.5 ng/mL) [23] | 8.62
YT (IL-2 2.5 ng/mL) [24] | 0
[15] | 0
[25] | 0
[26] | 0.24
[27] | 0
[28] | 0

COC1=CC(c2cc3ccccc3[nH]2)=N/C1=C\c1[nH]c(C)cc1C [Obatoclax] (max concentration tested 10000 nM)
percent inhibition of viability [%]
Settings | 1 nM | 10 nM | 100 nM | 1000 nM | 10000 nM
DERL-7 (IL-2 2.5 ng/mL) [2] | -3.53 | -2.23 | 2.25 | 2.35 | 36.5
IMC-1 (IL-2 20 ng/mL) [3] | -4.53 | -1.62 | -0.16 | 4.8 | 18.5
KAI3 (IL-2 2.5 ng/mL) [4] | 2.78 | 2.46 | -1.6 | 14.8 | 41.8
KHYG-1 (IL-2 2.5 ng/mL) [5] | -3.69 | -0.55 | 0.4 | 15.8 | 35.2
NK-92 (IL-2 2.5 ng/mL) [6] | -5.85 | 7.72 | 16.4 | 50 | 77.5
NK-YS (IL-2 2.5 ng/mL) [7] | -4.05 | -1.77 | 1.63 | 13.8 | 26.2
NKL (IL-2 2.5 ng/mL) [8] | -2.53 | -11.6 | 25.5 | 67.5 | 84.2
SNK-6 (IL-2 2.5 ng/mL) [9] | -0.44 | 6.97 | -8.81 | 6.17 | 16.6
YT (IL-2 2.5 ng/mL) [10] | 0.99 | 0.48 | 1.63 | 21.2 | 48.1
[1] | 0.42 | 2.59 | 3.2 | 6.46 | 21.2
[11] | -0.48 | 0.81 | -4.45 | 6.95 | 39.1
[12] | -9.87 | -1.78 | -10.3 | 10 | 59
[13] | -4.7 | -5.9 | 5.89 | 6.17 | 37.3
[14] | -3.41 | -11.5 | 3.42 | 9.76 | 34.5

Settings | drug sensitivity score
DERL-7 (IL-2 2.5 ng/mL) [16] | 2.1
IMC-1 (IL-2 20 ng/mL) [17] | 1.04
KAI3 (IL-2 2.5 ng/mL) [18] | 4.2
KHYG-1 (IL-2 2.5 ng/mL) [19] | 3.67
NK-92 (IL-2 2.5 ng/mL) [20] | 11.6
NK-YS (IL-2 2.5 ng/mL) [21] | 2.34
NKL (IL-2 2.5 ng/mL) [22] | 15.6
SNK-6 (IL-2 2.5 ng/mL) [23] | 0.94
YT (IL-2 2.5 ng/mL) [24] | 5.06
[15] | 1.2
[25] | 3.07
[26] | 4.87
[27] | 2.84
[28] | 2.91
